SMILES strings stand for the structures. pIC50: −log10 of the molar value. Values after ≈ are worked out from the molar mass of the structure shown.

Tested on in one assay: not listed separately
Nature of the assay: Animal Study 2 (oral glucose tolerance test). Conditions: Mus musculus, po, read-out: In vivo studies 300 mg/kg (oral glucose tolerance test, % decrease). The arrangement: species or system Crlj:CD1 (ICR) mice. The text has this: The results of in vivo oral glucose tolerance test (Example 39), expressed as % decrease, are presented as follows: […]
Animal Study 2 (Oral Glucose Tolerance Test)
Male Crlj:CD1 (ICR) mice were obtained from Charles River Laboratries Japan (Yokohama, Japan). All mice were given a standard diet (Clea Japan, Tokyo, Japan) and tap water ad libitum. All institutional guidelines for animal care and use were applied in this study. Test compounds were suspended in 0.3% carboxymethyl-cellulose sodium salt (CMC-Na; Sigma, St. Louis, Mo.). After fasting for 15-17 hr, the test compound (300 mg/kg) or vehicle (0.3% CMC-Na) was orally administered to 7-week-old ICR mice. Glucose solution (5 g/kg) was orally administered at 30 min after test compound treatment. Blood samples were collected from tail vein using capillary tubes containing EDTA·2K before test compound treatment, and at 0, 0.5, 1, and 2 hr after glucose load. The blood samples were centrifuged at 2,500×g for 5 min and separated plasma was kept on ice and analyzed in the same day. Plasma glucose levels were determined using the glucose C II-test (Wako Pure Chemical Industries, Osaka, Japan).
The sum of plasma glucose levels at 0.5 and 1 hr after glucose load was compared to that of vehicle treatment, and results were presented as percent decrease.
Regarding `CC(C)C[C@H]1COc2c(NCCCn3cnc4ccccc43)c(F)c(N)c3c(=O)c(C(=O)O)cn1c23` [compound 49], the inhibition in vivo at 300 mg/kg was in the range of 10 to 20%.
Consider `C[C@@H]1COc2c(NCCNc3ccccn3)c(F)c(N)c3c(=O)c(C(=O)O)cn1c23` [compound 31], for which the inhibition in vivo at 300 mg/kg is > 20%.
Turning to `CC(C)[C@H]1COc2c(NCCNc3ccccn3)c(F)c(N)c3c(=O)c(C(=O)O)cn1c23` [compound 61], the inhibition in vivo at 300 mg/kg lay in the range of 10 to 20%.
On the same count and under the same terms, the same measure for `CC(C)[C@H]1COc2c(NCCCn3ccnc3)c(F)c(N)c3c(=O)c(C(=O)O)cn1c23` [compound 55]: 10 to 20%.
With `CC1(C)COc2c(NCCNc3ccccn3)c(F)c(N)c3c(=O)c(C(=O)O)cn1c23` [compound 17], the inhibition in vivo at 300 mg/kg lay in the range of 10 to 20%.

The same assay, now with this note: Mus musculus; Table 1; 300 mg/kg oral, ICR mice; plasma glucose 0.5 and 1 hr after glucose load vs vehicle; read-out: In vivo studies 300 mg/kg (oral glucose tolerance test, % decrease).
For the compound `COc1c(NCCNc2ccccn2)c(F)c(N)c2c(=O)c(C(=O)O)cn(C3CC3)c12` [compound 71], the inhibition in vivo at 300 mg/kg is 10 to 20%.
The same measure, in the same setting: the same measure for `Nc1c(F)c(NCCCn2ccnc2)c(F)c2c1c(=O)ccn2CCc1ccccc1` [compound 62]: 5 to 10%.
Same read-out and setting: the same measure for `COc1c(NCCNc2cccc3ccccc23)c(F)c(N)c2c(=O)c(C(=O)O)cn(C3CC3)c12` [compound 70]: < 5%.

The same assay, now with this note: Mus musculus; Table 2; 300 mg/kg oral, ICR mice; plasma glucose 0.5 and 1 hr after glucose load vs vehicle; read-out: In vivo studies 300 mg/kg (oral glucose tolerance test, % decrease).
Turning to `C[C@H]1COc2c(NCCNc3ccccn3)c(F)c(N)c3c(=O)c(C(=O)O)cn1c23` [compound 18], the inhibition in vivo at 300 mg/kg is 10 to 20%.
Still for that read-out and setting: the same measure for `C[C@H]1COc2c(NCCNC3=NS(=O)(=O)c4ccccc43)c(F)c(N)c3c(=O)c(C(=O)O)cn1c23` [Example 113]: < 5%; for `C[C@H]1COc2c(NCCOc3ccc(F)cc3)c(F)c(N)c3c(=O)c(C(=O)O)cn1c23` [Example 101]: 10 to 20%; for `CCN(CCCNc1c(F)c(N)c2c(=O)c(C(=O)O)cn3c2c1OC[C@@H]3C)c1ccccc1` [compound 76]: > 20%.
As to `CC1(C)Cn2cc(C(=O)O)c(=O)c3c(N)c(F)c(NCCNc4ccccn4)c(c32)O1` [compound 57], the inhibition in vivo at 300 mg/kg is > 20%.

In a further assay the target is T1, recombinant full-length human GSK3β (Homo sapiens, UniProt P49841).
T1 construct: recombinant full-length human GSK3β (Upstate); purchased Upstate
T1 sequence (P49841 whole entry): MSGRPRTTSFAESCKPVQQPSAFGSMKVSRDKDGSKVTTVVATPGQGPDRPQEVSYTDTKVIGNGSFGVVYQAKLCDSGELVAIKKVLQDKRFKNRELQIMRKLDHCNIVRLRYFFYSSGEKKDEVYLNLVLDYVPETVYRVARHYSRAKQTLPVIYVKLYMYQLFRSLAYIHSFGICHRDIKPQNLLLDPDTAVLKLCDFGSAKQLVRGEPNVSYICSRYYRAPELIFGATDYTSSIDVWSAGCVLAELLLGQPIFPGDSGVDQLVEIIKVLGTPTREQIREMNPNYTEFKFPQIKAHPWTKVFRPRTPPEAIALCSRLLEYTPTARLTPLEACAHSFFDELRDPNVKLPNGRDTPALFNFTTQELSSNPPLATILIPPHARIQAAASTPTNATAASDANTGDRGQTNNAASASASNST
Description: Luciferase-coupled cell-free GSK3β kinase assay. Particulars: Table 1. Format: biochemical. An outline of the steps:
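GSK3β, 10-25 ng, was incubated with compound for 1 h at 30° C in MOPS pH 7.0 buffer containing 62.5 μM phospho-glycogen synthase peptide-2 and 5 μM ATP. Remaining ATP was read by KinaseGlo luminescence, and IC50 was fitted from % inhibition relative to maximal inhibition.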
The pIC50 is −log10 of the IC50, conventionally taken in molar units. As to `COc1c(NCCNc2ccccn2)c(F)c(N)c2c(=O)c(C(=O)O)cn(C3CC3)c12` [compound 71], the pIC50 was 6.30 to 7.00.
The same measure, in the same setting: the result for `Nc1c(F)c(NCCCn2ccnc2)c(F)c2c1c(=O)ccn2CCc1ccccc1` [compound 62] reads 6.30 to 7.00.
Still for that read-out and setting: the result for `COc1c(NCCNc2cccc3ccccc23)c(F)c(N)c2c(=O)c(C(=O)O)cn(C3CC3)c12` [compound 70] reads > 7.00.

Staying with this assay, now noted: Table 2.
With `C[C@@H]1COc2c(NCCNc3ccccn3)c(F)c(N)c3c(=O)c(C(=O)O)cn1c23` [compound 31], the pIC50 was 6.30 to 7.00.
Take `C[C@H]1COc2c(NCCNc3ccccn3)c(F)c(N)c3c(=O)c(C(=O)O)cn1c23` [compound 18]: the pIC50 was > 7.00.
For the compound `C[C@H]1COc2c(NCCNC3=NS(=O)(=O)c4ccccc43)c(F)c(N)c3c(=O)c(C(=O)O)cn1c23` [Example 113], the pIC50 was > 7.00.
Take `C[C@H]1COc2c(NCCOc3ccc(F)cc3)c(F)c(N)c3c(=O)c(C(=O)O)cn1c23` [Example 101]: the pIC50 is > 7.00.
For `CCN(CCCNc1c(F)c(N)c2c(=O)c(C(=O)O)cn3c2c1OC[C@@H]3C)c1ccccc1` [compound 76], the pIC50 is > 7.00.
In the case of `CC1(C)Cn2cc(C(=O)O)c(=O)c3c(N)c(F)c(NCCNc4ccccn4)c(c32)O1` [compound 57], the pIC50 was 6.30 to 7.00.

In the next assay the test system is E. coli, ATCC8739. Description: Antibacterial activity (MIC), E. coli. Conditions: Escherichia coli, ATCC8739, Table 1; E. coli ATCC8739; read-out: Antibacterial MIC (μM) E.Coli. Format: cell-based. An outline of the steps:
(§1)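 MIC, the lowest compound concentration inhibiting bacterial growth in culture medium, determined by dilution method per CLSI M7-A4 guidance; reported in μM.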
As a reminder, the MIC is the least concentration at which growth counts as inhibited. Take `COc1c(NCCNc2ccccn2)c(F)c(N)c2c(=O)c(C(=O)O)cn(C3CC3)c12` [compound 71]: the MIC lay in the range of 0.5 to 10 µM (≈ 0.214 to 4.27 µg/mL).
For `Nc1c(F)c(NCCCn2ccnc2)c(F)c2c1c(=O)ccn2CCc1ccccc1` [compound 62], the MIC was > 50 µM.
Same read-out and setting: the same measure for `COc1c(NCCNc2cccc3ccccc23)c(F)c(N)c2c(=O)c(C(=O)O)cn(C3CC3)c12` [compound 70]: > 50 µM.

The same assay, now with this note: Escherichia coli, ATCC8739, Table 2; E. coli ATCC8739; read-out: Antimicrobial MIC [μM] E. Coli.
As to `C[C@H]1COc2c(NCCNc3ccccn3)c(F)c(N)c3c(=O)c(C(=O)O)cn1c23` [compound 18], the MIC fell in the range of 0.5 to 10 µM (≈ 0.207 to 4.13 µg/mL).
For `CC1(C)Cn2cc(C(=O)O)c(=O)c3c(N)c(F)c(NCCNc4ccccn4)c(c32)O1` [compound 57], the MIC lay in the range of 10 to 50 µM (≈ 4.27 to 21.4 µg/mL).

Staying with this assay, now noted: Escherichia coli, ATCC8739, read-out: Antimicrobial MIC [μM] E. Coli.
Turning to `C[C@@H]1COc2c(NCCNc3ccccn3)c(F)c(N)c3c(=O)c(C(=O)O)cn1c23` [compound 31], the MIC lay in the range of 10 to 50 µM (≈ 4.13 to 20.7 µg/mL).

For another assay, the system named is S. aureus Smith. Description: Antibacterial activity (MIC), S. aureus. Format: cell-based. Conditions: Staphylococcus aureus, Table 1; read-out: Antibacterial MIC (μM) S. aureus Smith. An outline of the steps:
as §1
For `COc1c(NCCNc2ccccn2)c(F)c(N)c2c(=O)c(C(=O)O)cn(C3CC3)c12` [compound 71], the MIC was in the range of 0.5 to 10 µM (≈ 0.214 to 4.27 µg/mL).
Consider `Nc1c(F)c(NCCCn2ccnc2)c(F)c2c1c(=O)ccn2CCc1ccccc1` [compound 62], for which the MIC was > 50 µM.
In the case of `COc1c(NCCNc2cccc3ccccc23)c(F)c(N)c2c(=O)c(C(=O)O)cn(C3CC3)c12` [compound 70], the MIC is 0.5 to 10 µM (≈ 0.238 to 4.77 µg/mL).

Still in this assay, the particulars now being: Staphylococcus aureus, Table 2; S. aureus Smith; read-out: Antimicrobial MIC [μM] S. aureus.
As for `C[C@H]1COc2c(NCCNc3ccccn3)c(F)c(N)c3c(=O)c(C(=O)O)cn1c23` [compound 18], the MIC was in the range of 0.5 to 10 µM (≈ 0.207 to 4.13 µg/mL).
With `CC1(C)Cn2cc(C(=O)O)c(=O)c3c(N)c(F)c(NCCNc4ccccn4)c(c32)O1` [compound 57], the MIC fell in the range of 10 to 50 µM (≈ 4.27 to 21.4 µg/mL).

The same assay, now with this note: Staphylococcus aureus, read-out: Antimicrobial MIC [μM] S. aureus.
On to `C[C@@H]1COc2c(NCCNc3ccccn3)c(F)c(N)c3c(=O)c(C(=O)O)cn1c23` [compound 31], for which the MIC fell in the range of 10 to 50 µM (≈ 4.13 to 20.7 µg/mL).

These data come from patent US8063221B2, “Aminoquinolones as GSK-3 inhibitors” (Kyorin Pharmaceutical Co., Ltd., priority 2006, dated 2011).
